# In ChEMBL document CHEMBL1146459, “Production of biologically active taxoids by a callus culture of Taxus cuspidata” (2004):
# Tests used:
# NCI-H522 = test: Growth inhibition of human NCI-H522 cells after 48 hrs by SRB assay; assay type: functional; conditions: NCI-H522, 48 h
# U-251 = test: Growth inhibition of human U251 cells after 48 hrs by SRB assay; assay type: functional; conditions: U-251, 48 h
# SF-539 = test: Growth inhibition of human SF539 cells after 48 hrs by SRB assay; assay type: functional; conditions: SF-539, 48 h
# NCI-H460 = test: Growth inhibition of human NCI-H460 cells after 48 hrs by SRB assay; assay type: functional; conditions: NCI-H460, 48 h
# MKN-45 = test: Growth inhibition of human MKN45 cells after 48 hrs by SRB assay; assay type: functional; conditions: MKN-45, 48 h
# MKN-28 = test: Growth inhibition of human MKN28 cells after 48 hrs by SRB assay; assay type: functional; conditions: MKN-28, 48 h
# HCT-116 = test: Growth inhibition of human HCT116 cells after 48 hrs by SRB assay; assay type: functional; conditions: HCT-116, 48 h
# [1] = Growth inhibition of human MKN1 cells after 48 hrs by SRB assay; assay type: functional; conditions: MKN-1, 48 h
# [2] = Reversal of multidrug resistance in human 2780AD cells assessed as [3H]vincristine accumulation at 1 ug/mL after 2 hrs relative to verapamil; assay type: functional, A2780 ADR
# MKN-74 = test: Growth inhibition of human MKN74 cells after 48 hrs by SRB assay; assay type: functional; conditions: MKN-74, 48 h
# SF-295 = test: Growth inhibition of human SF295 cells after 48 hrs by SRB assay; assay type: functional; conditions: SF-295, 48 h
# OVCAR-4 = test: Growth inhibition of human OVCAR4 cells after 48 hrs by SRB assay; assay type: functional; conditions: OVCAR-4, 48 h
# [3] = read-out: pLC50 (the source's name) (converted)
# [4] = read-out: LC50 (the source's name)
smiles,measurement,setting,value
C=C1[C@@H](OC(C)=O)CC[C@@]2(C)C[C@H](OC(C)=O)C3=C(C)C[C@H](OC(=O)C(C)CC)[C@@H]([C@@H](OC(C)=O)[C@H]12)C3(C)C (stereo partly specified),GI50,NCI-H522; read-out: pGI50 (converted),24 µM
same,CC50,NCI-H522; [3],100 µM
same,TGI,NCI-H522; read-out: pTGI (converted),49 µM
same,GI50,U-251; read-out: GI50,36 µM
same,CC50,U-251; [4],> 100 µM
same,TGI,U-251; read-out: TGI,> 100 µM
same,GI50,U-251; read-out: pGI50 (converted),36.3 µM
same,CC50,U-251; [3],100 µM
same,TGI,U-251; read-out: pTGI (converted),100 µM
same,GI50,SF-539; read-out: GI50,45 µM
same,CC50,SF-539; [4],> 100 µM
same,TGI,SF-539; read-out: TGI,> 100 µM
same,GI50,SF-539; read-out: pGI50 (converted),44.7 µM
same,CC50,SF-539; [3],100 µM
same,TGI,SF-539; read-out: pTGI (converted),100 µM
same,GI50,NCI-H460; read-out: GI50,36 µM
same,CC50,NCI-H460; [4],> 100 µM
same,TGI,NCI-H460; read-out: TGI,> 100 µM
same,GI50,NCI-H460; read-out: pGI50 (converted),35.5 µM
same,TGI,NCI-H460; read-out: pTGI (converted),100 µM
same,GI50,MKN-45; read-out: GI50,27 µM
same,CC50,MKN-45; [4],> 100 µM
same,TGI,MKN-45; read-out: TGI,> 100 µM
same,GI50,MKN-45; read-out: pGI50 (converted),26.9 µM
same,CC50,MKN-45; [3],100 µM
same,TGI,MKN-45; read-out: pTGI (converted),100 µM
same,GI50,MKN-28; read-out: GI50,31 µM
same,CC50,MKN-28; [4],> 100 µM
same,TGI,MKN-28; read-out: TGI,> 100 µM
same,GI50,MKN-28; read-out: pGI50 (converted),30.9 µM
same,CC50,MKN-28; read-out: pLC50 (converted),> 100 µM
same,TGI,MKN-28; read-out: pTGI (converted),100 µM
same,GI50,HCT-116; read-out: GI50,30 µM
same,CC50,HCT-116; [4],> 100 µM
same,TGI,HCT-116; read-out: TGI,> 100 µM
same,GI50,HCT-116; read-out: pGI50 (converted),30.2 µM
same,CC50,HCT-116; [3],100 µM
same,TGI,HCT-116; read-out: pTGI (converted),100 µM
same,GI50,[1]; read-out: GI50,49 µM
same,CC50,[1]; [4],> 100 µM
same,TGI,[1]; read-out: TGI,> 100 µM
same,GI50,[1]; read-out: pGI50 (converted),49 µM
same,TGI,[1]; read-out: pTGI (converted),100 µM
same,Activity,[2],123%
same,GI50,MKN-74; read-out: GI50,30 µM
same,CC50,MKN-74; [4],> 100 µM
same,TGI,MKN-74; read-out: TGI,> 100 µM
same,GI50,MKN-74; read-out: pGI50 (converted),30.2 µM
same,CC50,MKN-74; [3],100 µM
same,TGI,MKN-74; read-out: pTGI (converted),100 µM
same,GI50,SF-295; read-out: GI50,21 µM
same,CC50,SF-295; [4],> 100 µM
same,TGI,SF-295; read-out: TGI,> 100 µM
same,GI50,SF-295; read-out: pGI50 (converted),21.4 µM
same,TGI,SF-295; read-out: pTGI (converted),100 µM
same,GI50,OVCAR-4; read-out: GI50,21 µM
same,CC50,OVCAR-4; [4],> 100 µM
same,TGI,OVCAR-4; read-out: TGI,> 100 µM
same,GI50,OVCAR-4; read-out: pGI50 (converted),21.4 µM
same,CC50,OVCAR-4; [3],100 µM
same,TGI,OVCAR-4; read-out: pTGI (converted),100 µM
